These results are taken from patent US20220411439A1, “POLYMORPHS OF A MACROCYCLIC KINASE INHIBITOR” (TURNING POINT THERAPEUTICS, INC., priority 2019, published 2022).

One assay addresses T1, RET (V804E) (Homo sapiens, UniProt P07949, V804E).
T1 construct: purchased Reaction Biology Corporation (contract assay)
Briefly: Biochemical kinase assay. Particulars: 10 μM ATP. As to the method: (§1) The biochemical kinase assay was performed at Reaction Biology Corporation (www.reactionbiology.com, Malvern, Pa.) following the procedures described in the reference (Anastassiadis T, et al Nat Biotechnol. 2011, 29, 1039). Specific kinase/substrate pairs along with required cofactors were prepared in reaction buffer; 20 mM Hepes pH 7.5, 10 mM MgCl2, 1 mM EGTA, 0.02% Brij35, 0.02 mg/ml BSA, 0.1 mM Na3VO4, 2 mM DTT, 1% DMSO. Compounds were delivered into the reaction, followed ˜20 minutes later by addition of a mixture of ATP (Sigma, St. Louis Mo.) and ^33P ATP (Perkin Elmer, Waltham Mass.) to a final concentration of 10 μM. Reactions were carried out at room temperature for 120 min, followed by spotting of the reactions onto P81 ion exchange filter paper (Whatman Inc., Piscataway, N.J.). Unbound phosphate was removed by extensive washing of filters in 0.75% phosphoric acid. […] IC50 values and curve fits were obtained using Prism (GraphPad Software).

In the next assay the target is T2, RET (S891A) (Homo sapiens, UniProt P07949, S891A).
T2 construct: purchased Reaction Biology Corporation (contract assay)
T2 sequence (P07949 29-1114 S891A): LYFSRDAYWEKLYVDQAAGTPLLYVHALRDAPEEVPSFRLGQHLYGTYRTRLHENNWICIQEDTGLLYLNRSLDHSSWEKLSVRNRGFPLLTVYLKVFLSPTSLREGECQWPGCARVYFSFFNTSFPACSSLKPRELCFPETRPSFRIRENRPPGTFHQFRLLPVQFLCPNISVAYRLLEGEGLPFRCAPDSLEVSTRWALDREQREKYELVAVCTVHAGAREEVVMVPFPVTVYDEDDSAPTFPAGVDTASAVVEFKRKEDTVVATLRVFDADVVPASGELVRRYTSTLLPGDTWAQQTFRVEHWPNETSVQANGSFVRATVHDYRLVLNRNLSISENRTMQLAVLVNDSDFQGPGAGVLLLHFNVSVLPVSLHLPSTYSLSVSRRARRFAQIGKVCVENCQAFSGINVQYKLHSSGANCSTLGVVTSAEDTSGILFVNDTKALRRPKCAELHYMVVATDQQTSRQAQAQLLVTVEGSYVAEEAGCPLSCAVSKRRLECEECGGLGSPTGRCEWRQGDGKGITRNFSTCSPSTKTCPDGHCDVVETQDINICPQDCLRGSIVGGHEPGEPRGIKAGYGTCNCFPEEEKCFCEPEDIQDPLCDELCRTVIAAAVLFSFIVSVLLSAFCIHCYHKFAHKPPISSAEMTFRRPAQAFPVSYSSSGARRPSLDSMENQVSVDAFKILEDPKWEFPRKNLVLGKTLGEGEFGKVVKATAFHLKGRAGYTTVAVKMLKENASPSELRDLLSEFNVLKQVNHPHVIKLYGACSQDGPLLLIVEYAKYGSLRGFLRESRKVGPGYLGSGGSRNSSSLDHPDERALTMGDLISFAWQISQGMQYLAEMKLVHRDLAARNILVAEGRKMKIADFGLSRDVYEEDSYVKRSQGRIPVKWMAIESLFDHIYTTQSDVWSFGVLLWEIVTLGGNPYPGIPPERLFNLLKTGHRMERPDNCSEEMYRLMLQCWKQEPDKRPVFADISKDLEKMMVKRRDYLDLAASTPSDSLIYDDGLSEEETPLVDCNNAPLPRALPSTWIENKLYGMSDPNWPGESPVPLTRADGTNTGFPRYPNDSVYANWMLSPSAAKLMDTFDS
As to the kind of experiment: Biochemical kinase assay. Particulars: 10 μM ATP. On the procedure:
as §1

The target in a further assay is T3, LYN (Homo sapiens, UniProt P07948).
T3 construct: purchased Reaction Biology Corporation (contract assay)
T3 sequence (P07948 whole entry): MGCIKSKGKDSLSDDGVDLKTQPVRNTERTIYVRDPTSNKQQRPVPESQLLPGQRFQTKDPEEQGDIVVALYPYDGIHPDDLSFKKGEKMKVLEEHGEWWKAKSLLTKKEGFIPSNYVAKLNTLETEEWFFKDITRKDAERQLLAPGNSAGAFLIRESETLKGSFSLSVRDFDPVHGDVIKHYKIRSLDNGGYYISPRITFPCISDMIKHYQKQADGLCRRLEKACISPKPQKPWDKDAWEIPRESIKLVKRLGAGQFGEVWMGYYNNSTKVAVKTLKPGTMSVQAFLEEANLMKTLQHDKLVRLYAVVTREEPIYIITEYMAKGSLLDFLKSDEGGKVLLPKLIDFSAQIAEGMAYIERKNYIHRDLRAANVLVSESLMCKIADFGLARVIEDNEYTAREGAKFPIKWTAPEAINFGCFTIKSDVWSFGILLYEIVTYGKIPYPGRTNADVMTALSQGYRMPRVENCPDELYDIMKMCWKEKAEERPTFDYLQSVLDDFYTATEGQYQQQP
As to the kind of experiment: Biochemical kinase assay. Particulars: 10 μM ATP. As to the method: as §1, with “Specific” for “The biochemical kinase assay was performed at Reaction Biology Corporation (www.reactionbiology.com, Malvern, Pa.) following the procedures described in the reference (Anastassiadis T, et al Nat Biotechnol. 2011, 29, 1039). Specific”

The next assay deals with T4, SRC (Homo sapiens, UniProt P12931).
T4 construct: purchased Reaction Biology Corporation (contract assay)
As to the kind of experiment: Biochemical kinase assay. Conditions: 10 μM ATP. On the procedure:
as §1, with “Specific” for “The biochemical kinase assay was performed at Reaction Biology Corporation (www.reactionbiology.com, Malvern, Pa.) following the procedures described in the reference (Anastassiadis T, et al Nat Biotechnol. 2011, 29, 1039). Specific”

For another assay, the target named is T5, RET-NCOA4 (PTC3) (Homo sapiens, UniProt P07949).
T5 construct: NCOA4 fragment (fusion partner); purchased Reaction Biology Corporation (contract assay)
Briefly: Biochemical kinase assay. Conditions: 10 μM ATP. On the procedure: as §1, with “Specific” for “The biochemical kinase assay was performed at Reaction Biology Corporation (www.reactionbiology.com, Malvern, Pa.) following the procedures described in the reference (Anastassiadis T, et al Nat Biotechnol. 2011, 29, 1039). Specific”

Another assay concerns the target T6, YES/YES1 (Homo sapiens, UniProt P07947).
T6 construct: purchased Reaction Biology Corporation (contract assay)
Briefly: Biochemical kinase assay. Conditions: 10 μM ATP. On the procedure: as §1, with “Specific” for “The biochemical kinase assay was performed at Reaction Biology Corporation (www.reactionbiology.com, Malvern, Pa.) following the procedures described in the reference (Anastassiadis T, et al Nat Biotechnol. 2011, 29, 1039). Specific”

In a further assay the target is T7, RET (Homo sapiens, UniProt P07949).
T7 construct: purchased Reaction Biology Corporation (contract assay)
As to the kind of experiment: Biochemical kinase assay. Particulars: 10 μM ATP. On the procedure: as §1, with “Specific” for “The biochemical kinase assay was performed at Reaction Biology Corporation (www.reactionbiology.com, Malvern, Pa.) following the procedures described in the reference (Anastassiadis T, et al Nat Biotechnol. 2011, 29, 1039). Specific”

Another assay deals with T8, HCK (Homo sapiens, UniProt P08631).
T8 construct: purchased Reaction Biology Corporation (contract assay)
T8 sequence (P08631 whole entry): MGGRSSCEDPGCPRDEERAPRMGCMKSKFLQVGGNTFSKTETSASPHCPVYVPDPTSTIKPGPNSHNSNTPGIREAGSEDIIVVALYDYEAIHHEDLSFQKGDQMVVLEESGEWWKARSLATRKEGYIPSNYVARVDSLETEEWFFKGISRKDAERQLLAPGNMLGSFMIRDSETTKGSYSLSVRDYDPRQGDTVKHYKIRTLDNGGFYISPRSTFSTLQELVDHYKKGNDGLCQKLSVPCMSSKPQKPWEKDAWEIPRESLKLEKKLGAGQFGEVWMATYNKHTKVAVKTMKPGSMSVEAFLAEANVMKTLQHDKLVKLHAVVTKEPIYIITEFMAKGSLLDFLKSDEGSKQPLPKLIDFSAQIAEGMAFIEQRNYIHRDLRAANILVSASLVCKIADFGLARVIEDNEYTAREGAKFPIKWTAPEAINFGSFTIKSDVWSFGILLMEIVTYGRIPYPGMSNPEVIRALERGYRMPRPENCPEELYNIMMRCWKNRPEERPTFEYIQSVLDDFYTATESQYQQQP
As to the kind of experiment: Biochemical kinase assay. Particulars: 10 μM ATP. On the procedure:
as §1, with “Specific” for “The biochemical kinase assay was performed at Reaction Biology Corporation (www.reactionbiology.com, Malvern, Pa.) following the procedures described in the reference (Anastassiadis T, et al Nat Biotechnol. 2011, 29, 1039). Specific”

The next assay has as its target T9, FYN (Homo sapiens, UniProt P06241).
T9 construct: purchased Reaction Biology Corporation (contract assay)
As to the kind of experiment: Biochemical kinase assay. Conditions: 10 μM ATP. On the procedure:
as §1, with “Specific” for “The biochemical kinase assay was performed at Reaction Biology Corporation (www.reactionbiology.com, Malvern, Pa.) following the procedures described in the reference (Anastassiadis T, et al Nat Biotechnol. 2011, 29, 1039). Specific”

Assay [1] has as its target T10, Ba/F3 KIF5B-RET (Homo sapiens, UniProt P07949).
T10 construct: Ba/F3 KIF5B-RET IC50 (nM); other: anti-cell proliferation, 72 hours; fused on or other part: P33176 (Kinesin-1 heavy chain)
Briefly: Cell proliferation assay (CellTiter-Glo). It counts as cell-based. Conditions: anti-cell proliferation, 72 hours; read-out: Ba/F3 KIF5B-RET IC50. From the text:
(§2) The KIF5B-RET gene was synthesized at GenScript and cloned into pCDH-CMV-MCS-EF1-Puro plasmid (System Biosciences, Inc). KIF5B-RET point mutation V804M and G810C were generated at GenScript by PCR and confirmed by sequencing. Ba/F3-KIF5B-RET wild type and mutant were generated by transducing Ba/F3 cells with lentivirus containing KIF5B-RET wide type or mutant. Stable cell lines were selected by puromycin treatment, followed by IL-3 withdrawal. Briefly, 5×10^6 Ba/F3 cells were transduced with lentivirus supernatant in the presence of 8 μg/mL protamine sulfate. The transduced cells were subsequently selected with 1 μg/mL puromycin in the presence of IL3-containing medium RPMI1640, plus 10% FBS. After 10-12 days of selection, the surviving cells were further selected for […] independent growth.
(§3) Two thousand cells per well were seeded in 384 well white plate for 24 hrs, and then treated with compounds for 72 hours (37° C., 5% CO2). Cell proliferation was measured using CellTiter-Glo luciferase-based ATP detection assay (Promega) following the manufactures's protocol. IC50 determinations were performed using GraphPad Prism software (GraphPad, Inc., San Diego, Calif.).

The target in another assay is T11, Ba/F3 KIF5B-RET_V804M (Homo sapiens, UniProt P07949, V804M, cells depend on it).
T11 construct: fused on or other part: P33176 (Kinesin-1 heavy chain)
Briefly: Cell proliferation assay (CellTiter-Glo). In kind it is cell-based. Particulars: anti-cell proliferation, 72 hours; read-out: Ba/F3 KIF5B-RET_V804M IC50.
Excerpt: as §2, §3

The target in another assay is T12, Ba/F3 KIF5B-RET_G810C (Homo sapiens, UniProt P07949, G810C, cells depend on it).
T12 construct: fused on or other part: P33176 (Kinesin-1 heavy chain)
Briefly: Cell proliferation assay (CellTiter-Glo). It counts as cell-based. Conditions: anti-cell proliferation, 72 hours; read-out: Ba/F3 KIF5B-RET_G810C IC50.
Excerpt: as §2, §3

Another assay deals with T13, Ba/F3 EML4-ALK (Homo sapiens, UniProt Q9UM73).
T13 construct: fused on or other part: Q9HC35 (Echinoderm microtubule-associated protein-like 4)
As to the kind of experiment: Cell proliferation assay (CellTiter-Glo). In kind it is cell-based. Conditions: anti-cell proliferation, 72 hours. As to the method: The EML4-ALK gene (variant 1) was synthesized at GenScript and cloned into pCDH-CMV-MCS-EF1-Puro plasmid (System Biosciences, Inc). Ba/F3-EML4-ALK wild type were generated by transducing Ba/F3 cells with lentivirus containing EML4-ALK wide type. Stable cell lines were selected by puromycin treatment, followed by IL-3 withdrawal. Briefly, 5×10^6 Ba/F3 cells were transduced with lentivirus supernatant in the presence of 8 μg/mL protamine sulfate. The transduced cells were subsequently selected with 1 μg/mL puromycin in the presence of IL3-containing medium RPMI1640, plus 10% FBS. After 10-12 days of selection, the surviving cells were further selected for IL3 independent growth.
as §3

In assay [2] the target is T14, Ba/F3 KIF5B-RET (Homo sapiens, UniProt P07949, cells depend on it, form not given).
T14 construct: IC50 (nM); other: Experiment 1; other: Experiment 2; fused on or other part: P33176 (Kinesin-1 heavy chain)
T14 sequence (P07949 whole entry G810C, form open, the tested form may be a part): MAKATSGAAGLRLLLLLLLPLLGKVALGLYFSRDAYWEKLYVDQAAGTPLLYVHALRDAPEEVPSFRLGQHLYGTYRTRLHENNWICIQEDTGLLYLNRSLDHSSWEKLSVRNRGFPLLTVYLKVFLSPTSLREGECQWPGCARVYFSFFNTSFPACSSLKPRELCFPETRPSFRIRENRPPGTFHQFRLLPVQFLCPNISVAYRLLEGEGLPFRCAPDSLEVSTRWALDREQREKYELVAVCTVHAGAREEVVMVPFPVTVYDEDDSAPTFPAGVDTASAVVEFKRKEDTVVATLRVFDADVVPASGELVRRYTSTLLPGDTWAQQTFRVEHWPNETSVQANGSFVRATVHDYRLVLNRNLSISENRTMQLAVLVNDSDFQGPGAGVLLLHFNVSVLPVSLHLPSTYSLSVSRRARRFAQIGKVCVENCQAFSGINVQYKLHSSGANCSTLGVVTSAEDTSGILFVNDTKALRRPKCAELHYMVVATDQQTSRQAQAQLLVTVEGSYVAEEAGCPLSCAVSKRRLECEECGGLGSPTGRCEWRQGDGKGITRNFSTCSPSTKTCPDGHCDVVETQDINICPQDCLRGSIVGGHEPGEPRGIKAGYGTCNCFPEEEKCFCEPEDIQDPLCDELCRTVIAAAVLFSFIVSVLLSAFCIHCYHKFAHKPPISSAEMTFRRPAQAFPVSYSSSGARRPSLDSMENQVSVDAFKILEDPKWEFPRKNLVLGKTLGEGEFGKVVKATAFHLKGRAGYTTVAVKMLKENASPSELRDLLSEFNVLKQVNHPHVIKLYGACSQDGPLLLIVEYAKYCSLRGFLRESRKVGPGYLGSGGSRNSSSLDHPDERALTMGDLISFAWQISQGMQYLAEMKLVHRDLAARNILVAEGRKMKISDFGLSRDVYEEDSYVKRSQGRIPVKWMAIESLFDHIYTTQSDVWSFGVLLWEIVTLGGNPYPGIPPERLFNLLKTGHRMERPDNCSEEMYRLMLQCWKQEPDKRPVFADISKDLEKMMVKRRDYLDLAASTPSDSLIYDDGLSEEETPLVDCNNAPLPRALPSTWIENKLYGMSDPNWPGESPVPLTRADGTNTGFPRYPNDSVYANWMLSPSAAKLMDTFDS
Briefly: Compound I anti-cell proliferation comparison (FIG. 5A, 5B). Conditions: for GI50: read-out: IC50 (the source's name). In kind it is cell-based.
Excerpt: as §2, §3

Molecules are shown by their SMILES. Where two headings read alike, the source gives them in different places. A value given as a limit tells only on which side of the number the result lay.

T1 sequence (P07949 29-1114 V804E): as the sequence (P07949 29-1114 S891A) above, with V776E, A863S counted along it
T6 sequence (P07947 whole entry): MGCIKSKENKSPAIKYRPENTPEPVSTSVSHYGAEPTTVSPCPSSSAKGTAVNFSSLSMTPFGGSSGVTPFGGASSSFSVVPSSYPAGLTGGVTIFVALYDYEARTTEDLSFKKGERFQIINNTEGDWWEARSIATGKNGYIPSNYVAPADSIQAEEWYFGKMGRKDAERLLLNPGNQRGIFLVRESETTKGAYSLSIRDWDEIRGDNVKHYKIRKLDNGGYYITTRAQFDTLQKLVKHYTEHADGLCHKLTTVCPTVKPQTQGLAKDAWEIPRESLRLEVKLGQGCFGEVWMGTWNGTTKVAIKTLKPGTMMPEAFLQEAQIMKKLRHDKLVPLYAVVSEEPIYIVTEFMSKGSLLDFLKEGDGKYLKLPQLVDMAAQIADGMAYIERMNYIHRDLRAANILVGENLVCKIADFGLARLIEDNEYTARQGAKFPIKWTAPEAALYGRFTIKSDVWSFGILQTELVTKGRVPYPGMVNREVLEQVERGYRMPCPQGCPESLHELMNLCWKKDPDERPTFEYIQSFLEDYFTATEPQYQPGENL

On to `C[C@H]1CNC(=O)c2cnn3cc4c(nc23)N(Cc2cc(F)cnc2O1)[C@@H]1CCC[C@@H]1O4` [Compound I, (3aR,11S,20aS)-7-fluoro-11-methyl-2,3,3a,12,13,20a-hexahydro-1H,5H-17,19-(metheno)cyclopenta[5,6][1,4]oxazino[3,4-i]pyrazolo[4,3-f]pyrido[3,2-l][1,4,8,10]oxatriazacyclotridecin-14(11H)-one], for which the IC50 against RET (V804E) is above 1000 nM; against RET (S891A), 0.2 nM; against LYN, 2 nM; at SRC it was 1.5 nM; at RET-NCOA4 (PTC3), 0.7 nM; against YES/YES1 it was 2.6 nM. The IC50 against RET is 1 nM; at HCK, 2.7 nM; against FYN, 1.9 nM. The GI50 on Ba/F3 KIF5B-RET [1] was 0.25 nM; at Ba/F3 KIF5B-RET_V804M it was 1000 nM; on Ba/F3 KIF5B-RET_G810C, below 15 nM; on Ba/F3 EML4-ALK, 211 nM; at Ba/F3 KIF5B-RET [2] (Experiment 1) it was 9.6 nM; on Ba/F3 KIF5B-RET [2] (Experiment 2), 13.3 nM. The “IC75” value against Ba/F3 KIF5B-RET [2] (Experiment 1) is given as 28.8 nM; on Ba/F3 KIF5B-RET [2] (Experiment 2), 39.9 nM. Besides, the IC90 came to 86.4 nM at Ba/F3 KIF5B-RET [2] (Experiment 1) and 120 nM on Ba/F3 KIF5B-RET [2] (Experiment 2).
